Experimental data taken from ChEMBL document CHEMBL2440112, “Structure-activity relationships of the aromatic site in novel anticonvulsant pyrrolo[1,2-a]pyrazine derivatives” (Bioorg Med Chem Lett, 2013).
The source made the active and inactive calls. The rule behind the calls is not given here.

Tests used:
Mus musculus [1] = assay: Neurotoxicity in albino mouse minimal clonic seizure model assessed as minimal motor impairment at 100 mg/kg, ip after 4 hrs by rotorod test; format: toxicity, organism-based; set-up: dose 100 mg/kg, route intraperitoneal; conditions: in vivo
Mus musculus [2] = assay: Neurotoxicity in albino mouse minimal clonic seizure model assessed as minimal motor impairment at 100 mg/kg, ip after 2 hrs by rotorod test; format: toxicity, organism-based; set-up: dose 100 mg/kg, route intraperitoneal; conditions: in vivo
Mus musculus [3] = assay: Neurotoxicity in albino mouse minimal clonic seizure model assessed as minimal motor impairment at 100 mg/kg, ip after 1 hr by rotorod test; format: toxicity, organism-based; set-up: dose 100 mg/kg, route intraperitoneal; conditions: in vivo
Mus musculus [4] = assay: Neurotoxicity in albino mouse minimal clonic seizure model assessed as minimal motor impairment at 100 mg/kg, ip after 0.5 hrs by rotorod test; format: toxicity, organism-based; set-up: dose 100 mg/kg, route intraperitoneal; conditions: in vivo
Mus musculus [5] = assay: Neurotoxicity in albino mouse minimal clonic seizure model assessed as minimal motor impairment at 100 mg/kg, ip after 0.25 hrs by rotorod test; format: toxicity, organism-based; set-up: dose 100 mg/kg, route intraperitoneal; conditions: in vivo
Mus musculus [6] = assay: Anticonvulsant activity in albino mouse assessed as protection against 6 Hz psychomotor seizure at 100 mg/kg, ip after 4 hrs by minimal clonic seizure test; format: functional, organism-based; set-up: dose 100 mg/kg
Mus musculus [7] = assay: Anticonvulsant activity in albino mouse assessed as protection against 6 Hz psychomotor seizure at 100 mg/kg, ip after 2 hrs by minimal clonic seizure test; format: functional, organism-based; set-up: dose 100 mg/kg
Mus musculus [8] = assay: Anticonvulsant activity in albino mouse assessed as protection against 6 Hz psychomotor seizure at 100 mg/kg, ip after 1 hr by minimal clonic seizure test; format: functional, organism-based; set-up: dose 100 mg/kg
Mus musculus [9] = assay: Anticonvulsant activity in albino mouse assessed as protection against 6 Hz psychomotor seizure at 100 mg/kg, ip after 0.5 hrs by minimal clonic seizure test; format: functional, organism-based; set-up: dose 100 mg/kg
Mus musculus [10] = assay: Anticonvulsant activity in albino mouse assessed as protection against 6 Hz psychomotor seizure at 100 mg/kg, ip after 0.25 hrs by minimal clonic seizure test; format: functional, organism-based; set-up: dose 100 mg/kg
Rattus norvegicus [11] = assay: Anticonvulsant activity in po dosed albino Sprague-Dawley rat assessed as protection against maximal electroshock-induced seizures after […] to 4 hrs; format: functional, organism-based
Mus musculus [12] = assay: Neurotoxicity in albino mouse assessed as minimal motor impairment at 100 mg/kg, ip after 4 hrs by rotorod test; format: toxicity, organism-based; set-up: dose 100 mg/kg, route intraperitoneal; conditions: in vivo
Mus musculus [13] = assay: Neurotoxicity in albino mouse assessed as minimal motor impairment at 100 mg/kg, ip after 1 hr by rotorod test; format: toxicity, organism-based; set-up: dose 100 mg/kg, route intraperitoneal; conditions: in vivo
Mus musculus [14] = assay: Neurotoxicity in albino mouse assessed as minimal motor impairment at 100 mg/kg, ip after 0.5 hrs by rotorod test; format: toxicity, organism-based; set-up: dose 100 mg/kg, route intraperitoneal; conditions: in vivo
Mus musculus [15] = assay: Neurotoxicity in albino mouse assessed as minimal motor impairment at 100 mg/kg, ip after 0.25 hrs by rotorod test; format: toxicity, organism-based; set-up: dose 100 mg/kg, route intraperitoneal; conditions: in vivo
Mus musculus [16] = assay: Anticonvulsant activity in albino mouse assessed as protection against subcutaneous metrazole-induced seizures at 100 mg/kg, ip after 4 hrs; format: functional, organism-based; set-up: dose 100 mg/kg
Mus musculus [17] = assay: Anticonvulsant activity in albino mouse assessed as protection against subcutaneous metrazole-induced seizures at 100 mg/kg, ip after 1 hr; format: functional, organism-based; set-up: dose 100 mg/kg
Mus musculus [18] = assay: Anticonvulsant activity in albino mouse assessed as protection against subcutaneous metrazole-induced seizures at 100 mg/kg, ip after 0.5 hrs; format: functional, organism-based; set-up: dose 100 mg/kg
Mus musculus [19] = assay: Anticonvulsant activity in albino mouse assessed as protection against maximal electroshock-induced seizures at 100 mg/kg, ip after 4 hrs; format: functional, organism-based; set-up: dose 100 mg/kg
Mus musculus [20] = assay: Anticonvulsant activity in albino mouse assessed as protection against subcutaneous metrazole-induced seizures at 100 mg/kg, ip after 0.25 hrs; format: functional, organism-based; set-up: dose 100 mg/kg
Mus musculus [21] = assay: Anticonvulsant activity in albino mouse assessed as protection against maximal electroshock-induced seizures at 100 mg/kg, ip after 1 hr; format: functional, organism-based; set-up: dose 100 mg/kg
Mus musculus [22] = assay: Anticonvulsant activity in albino mouse assessed as protection against maximal electroshock-induced seizures at 100 mg/kg, ip after 0.5 hrs; format: functional, organism-based; set-up: dose 100 mg/kg
Mus musculus [23] = assay: Anticonvulsant activity in albino mouse assessed as protection against maximal electroshock-induced seizures at 100 mg/kg, ip after 0.25 hrs; format: functional, organism-based; set-up: dose 100 mg/kg
Mus musculus [24] = assay: Anticonvulsant activity in ip dosed albino mouse assessed as time of peak effect for protection against 6 Hz psychomotor seizure by minimal clonic seizure test; format: functional
Mus musculus [25] = assay: Anticonvulsant activity in albino mouse assessed as protection against subcutaneous metrazole-induced seizures at 300 mg/kg, ip after 0.5 hrs; format: functional, organism-based; set-up: dose 300 mg/kg
Rattus norvegicus [26] = assay: Neurotoxicity in albino Sprague-Dawley rat assessed as minimal motor impairment at 30 mg/kg, ip after 4 hrs by rotorod test; format: toxicity, organism-based; set-up: dose 30 mg/kg, route intraperitoneal; conditions: in vivo
Rattus norvegicus [27] = assay: Neurotoxicity in albino Sprague-Dawley rat assessed as minimal motor impairment at 30 mg/kg, ip after 2 hrs by rotorod test; format: toxicity, organism-based; set-up: dose 30 mg/kg, route intraperitoneal; conditions: in vivo
Rattus norvegicus [28] = assay: Neurotoxicity in albino Sprague-Dawley rat assessed as minimal motor impairment at 30 mg/kg, ip after 1 hr by rotorod test; format: toxicity, organism-based; set-up: dose 30 mg/kg, route intraperitoneal; conditions: in vivo
Rattus norvegicus [29] = assay: Neurotoxicity in albino Sprague-Dawley rat assessed as minimal motor impairment at 30 mg/kg, ip after 0.5 hrs by rotorod test; format: toxicity, organism-based; set-up: dose 30 mg/kg, route intraperitoneal; conditions: in vivo
Rattus norvegicus [30] = assay: Neurotoxicity in albino Sprague-Dawley rat assessed as minimal motor impairment at 30 mg/kg, ip after 0.25 hrs by rotorod test; format: toxicity, organism-based; set-up: dose 30 mg/kg, route intraperitoneal; conditions: in vivo
Rattus norvegicus [31] = assay: Anticonvulsant activity in albino Sprague-Dawley rat assessed as protection against maximal electroshock-induced seizures at 30 mg/kg, ip after 4 hrs; format: functional, organism-based; set-up: dose 30 mg/kg
Rattus norvegicus [32] = assay: Anticonvulsant activity in albino Sprague-Dawley rat assessed as protection against maximal electroshock-induced seizures at 30 mg/kg, ip after 2 hrs; format: functional, organism-based; set-up: dose 30 mg/kg
Rattus norvegicus [33] = assay: Anticonvulsant activity in albino Sprague-Dawley rat assessed as protection against maximal electroshock-induced seizures at 30 mg/kg, ip after 1 hr; format: functional, organism-based; set-up: dose 30 mg/kg
Rattus norvegicus [34] = assay: Anticonvulsant activity in albino Sprague-Dawley rat assessed as protection against maximal electroshock-induced seizures at 30 mg/kg, ip after 0.5 hrs; format: functional, organism-based; set-up: dose 30 mg/kg
Rattus norvegicus [35] = assay: Anticonvulsant activity in albino Sprague-Dawley rat assessed as protection against maximal electroshock-induced seizures at 30 mg/kg, ip after 0.25 hrs; format: functional, organism-based; set-up: dose 30 mg/kg
[36] = Neurotoxicity in ip dosed albino mouse minimal clonic seizure model assessed as minimal motor impairment by rotorod test; format: toxicity, organism-based; conditions: in vivo

SMILES: O=C1NC(=O)[C@@H]2CCCN2[C@H]1c1cc(Cl)cc(Cl)c1
- Activity (Mus musculus [1]): Non-toxic
- Activity (Mus musculus [2]): Non-toxic
- Activity (Mus musculus [3]): Non-toxic
- Activity (Mus musculus [4]): Non-toxic
- Activity (Mus musculus [5]): Non-toxic
- Activity (Mus musculus [6]): inactive
- Activity (Mus musculus [7]): inactive
- Activity (Mus musculus [8]): inactive
- Activity (Mus musculus [9]): Active
- Activity (Mus musculus [10]): Active
- Activity (Rattus norvegicus [11]): inactive
- Activity (Mus musculus [12]): Non-toxic
- Activity (Mus musculus [13]): Non-toxic
- Activity (Mus musculus [14]): Non-toxic
- Activity (Mus musculus [15]): Non-toxic
- Activity (Mus musculus [16]): inactive
- Activity (Mus musculus [17]): inactive
- Activity (Mus musculus [18]): inactive
- Activity (Mus musculus [19]): Active
- Activity (Mus musculus [20]): inactive
- Activity (Mus musculus [21]): Active
- Activity (Mus musculus [22]): Active
- Activity (Mus musculus [23]): Active

SMILES: O=C1NC(=O)[C@@H]2CCCN2[C@H]1c1ccc2ccccc2c1
- Activity (Rattus norvegicus [11]): inactive
- Activity (Mus musculus [12]): Non-toxic
- Activity (Mus musculus [14]): Non-toxic
- Activity (Mus musculus [16]): inactive
- Activity (Mus musculus [18]): inactive
- Activity (Mus musculus [19]): inactive
- Activity (Mus musculus [22]): inactive

SMILES: COc1ccc([C@H]2C(=O)NC(=O)[C@@H]3CCCN23)cc1
- Activity (Rattus norvegicus [11]): inactive
- Activity (Mus musculus [12]): Non-toxic
- Activity (Mus musculus [13]): Non-toxic
- Activity (Mus musculus [14]): Non-toxic
- Activity (Mus musculus [15]): Non-toxic
- Activity (Mus musculus [16]): inactive
- Activity (Mus musculus [18]): inactive
- Activity (Mus musculus [19]): inactive
- Activity (Mus musculus [21]): inactive
- Activity (Mus musculus [22]): inactive
- Activity (Mus musculus [23]): inactive

SMILES: CCC1(C)CC(=O)NC1=O (stereo unspecified) [ETHOSUXIMIDE]
- Time (Mus musculus [24]): 0.25 h

SMILES: Cl.O=C1NC(=O)[C@@H]2CCCN2[C@H]1c1ccccc1Cl
- Activity (Rattus norvegicus [11]): inactive
- Activity (Mus musculus [12]): Non-toxic
- Activity (Mus musculus [13]): Non-toxic
- Activity (Mus musculus [14]): Non-toxic
- Activity (Mus musculus [15]): Non-toxic
- Activity (Mus musculus [16]): inactive
- Activity (Mus musculus [25]): Active
- Activity (Mus musculus [18]): inactive
- Activity (Mus musculus [19]): inactive
- Activity (Mus musculus [21]): inactive
- Activity (Mus musculus [22]): inactive
- Activity (Mus musculus [23]): inactive

SMILES: O=C1NC(=O)[C@@H]2CCCN2[C@H]1c1ccco1
- Activity (Rattus norvegicus [11]): inactive
- Activity (Mus musculus [12]): Non-toxic
- Activity (Mus musculus [14]): Toxic
- Activity (Mus musculus [16]): inactive
- Activity (Mus musculus [18]): inactive
- Activity (Mus musculus [19]): inactive
- Activity (Mus musculus [22]): inactive

SMILES: Cc1cccc([C@H]2C(=O)NC(=O)[C@@H]3CCCN23)c1
- Activity (Mus musculus [1]): Non-toxic
- Activity (Mus musculus [2]): Non-toxic
- Activity (Mus musculus [3]): Non-toxic
- Activity (Mus musculus [4]): Non-toxic
- Activity (Mus musculus [5]): Toxic
- Activity (Mus musculus [6]): inactive
- Activity (Mus musculus [7]): inactive
- Activity (Mus musculus [8]): inactive
- Activity (Mus musculus [9]): Active
- Activity (Mus musculus [10]): Active
- Activity (Rattus norvegicus [26]): Non-toxic
- Activity (Rattus norvegicus [27]): Non-toxic
- Activity (Rattus norvegicus [28]): Non-toxic
- Activity (Rattus norvegicus [29]): Non-toxic
- Activity (Rattus norvegicus [30]): Non-toxic
- Activity (Rattus norvegicus [11]): inactive
- Activity (Rattus norvegicus [31]): inactive
- Activity (Rattus norvegicus [32]): inactive
- Activity (Rattus norvegicus [33]): inactive
- Activity (Rattus norvegicus [34]): inactive
- Activity (Rattus norvegicus [35]): inactive
- Activity (Mus musculus [12]): Non-toxic
- Activity (Mus musculus [13]): Non-toxic
- Activity (Mus musculus [14]): Non-toxic
- Activity (Mus musculus [15]): Toxic
- Activity (Mus musculus [16]): inactive
- Activity (Mus musculus [17]): inactive
- Activity (Mus musculus [18]): inactive
- Activity (Mus musculus [19]): inactive
- Activity (Mus musculus [20]): Active
- Activity (Mus musculus [21]): inactive
- Activity (Mus musculus [22]): Active
- Activity (Mus musculus [23]): Active

SMILES: CC[C@@H](C(N)=O)N1CCCC1=O
- TD50 [36]: > 500 mg/kg
- Time (Mus musculus [24]): 1 h
